Laboratory results as given in patent publication US11243207B2, “Assessing and treating cancer” (Mayo Foundation for Medical Education and Research, priority 2018, dated 2022).

Experiments:
HLF cells = assay: Combination proliferation assay in HLF cells (Chou and Talalay); assay type: cell-based; conditions: in combination with SSI-4
Description: (§3) Cell lines were maintained in DMEM media supplemented with sodium pyruvate, HEPES, non-essential amino acids, 3% FBS and antibiotics. Cells were plated at 30,000 cells per well in 12-well plate and treated for 4-5 days at the indicated doses with SSI4 and sorafenib diluted in DMSO at 1:1000. Cell number was determined by using a Coulter Particle Counter.

LIV58 HCC PDTX = LIV58 HCC PDTX mouse model; assay type: in vivo
Description: (§1) Tissues were cut into 4×4×4 mm cubes and surgically implanted under anesthesia with 100 μl Matrigel into 4-6 week old athymic nude female mice. Tumors were measured 1 to 2 times per week using calipers and volumes calculated by […]*(L×W×H). Once tumors reached ˜100 mm3, either placebo or SSI-4 treatment was administered at 180, or 600 mg/kg in custom AIN76 animal chow by Research Diets, Inc. Based upon food consumption, the amount of SSI4 ingested was 20 mg/kg and 50 mg/kg, respectively. For the combination study, mice were administered either 10 mg/kg SSI4, 30 mg/kg sorafenib or both in Nutra-gel diet.
FFPE tissues were cut into 5 μm sections, deparaffinized, hydrated, antigen retrieved for 25 minutes at pH 6.0 and blocked for 5 minutes with Dako diluent. Immunostaining was done for 1 hour with either lamin A+C, SCD1, c-Myc, survivin, LDHA, ki67, and BIP primary antibodies. For detection, the Envision Dual Labeled Polymer kit (Dako) was used for 30 minutes for anti-species secondary antibodies and stained with DAB chromagen for 5 minutes. Then, lightly counterstained with Gill I hematoxylin for 30 seconds before dehydration and mounting. Images were obtained at 20× using an Aperio AT2 Scanscope. IHC scoring was done using an algorithm in the Imagescope software based upon signal intensity of weak (1+), moderate (2+) or strong staining (3+) with criteria of at least 20% positivity. H score was calculated based upon signal intensity (0-3) using the formula: [(1+%×1)+(2+%×2)+(3+%×3)].

HCC cell lines = assay: Proliferation assay in HCC cell lines; assay type: cell-based
Description: as §3

[1] = Single dose pharmacokinetics in fasted male C57BL/6 mice (PO or IV); assay type: in vivo, mouse
Description: (§2) Pharmacokinetic assessment was performed for SSI-4 administered to fasted male C57BL/6 mice either intravenously (IV) or by oral gavage (PO) in DMSO:PEG400:water (10:70:20) as a clear solution at 5 mg/mL (IV dosing), and 1.3 or 10 mg/mL (respectively for the PO dosing). Serum analysis was performed by LC-MS-MS. PK calculation settings were obtained using the Phoenix WinNonlin 6.3 program, using either the Noncompartmental model 201 (IV bolus input) or Noncompartmental model 200 (extravascular input). Microsomes were isolated from murine liver using Microsome Isolation Kit (BioVision). Each assay (100 μL) contained 50 μg of microsomes, 1 μL of DMSO (for no drug controls) or DMSO-solubilized SCD1 inhibitor, 1 mM reduced NADH, 60 µM coenzyme A, 1 mM ATP, 1 mM DTT, and 5 mM MgCl2 in 100 mM sodium phosphate buffer (pH 7.4). […] To quantify biotransformation of 13C18-stearoyl CoA to 13C18-oleoyl CoA for drug treatments relative to vehicle controls, supernatants were evaluated using the LC/MS2 acyl CoA quantitation method of Magnes et al. and adapting selected reaction monitoring (SRM) for isotope-labeled acyl CoAs. […] SRM signal areas for isotope-labeled acyl CoAs were measured relative to the heptadecanoyl CoA I.S. using XCalibur software, and percent enzyme inhibition determined by comparing 13C18-oleoyl CoA quantities between treatment and DMSO control assays. […]

SCD1 = target: T1, SCD1 (Mus musculus, UniProt P13516); assay: Inhibition of oleoyl CoA biosynthesis by mouse liver microsomes (13C18-stearoyl CoA conversion, LC/MS); assay type: biochemical
T1 construct: Each assay (100 μL) contained 50 μg of microsomes; from tissue; host or cells: mouse liver microsomes
T1 sequence (P13516 1-355): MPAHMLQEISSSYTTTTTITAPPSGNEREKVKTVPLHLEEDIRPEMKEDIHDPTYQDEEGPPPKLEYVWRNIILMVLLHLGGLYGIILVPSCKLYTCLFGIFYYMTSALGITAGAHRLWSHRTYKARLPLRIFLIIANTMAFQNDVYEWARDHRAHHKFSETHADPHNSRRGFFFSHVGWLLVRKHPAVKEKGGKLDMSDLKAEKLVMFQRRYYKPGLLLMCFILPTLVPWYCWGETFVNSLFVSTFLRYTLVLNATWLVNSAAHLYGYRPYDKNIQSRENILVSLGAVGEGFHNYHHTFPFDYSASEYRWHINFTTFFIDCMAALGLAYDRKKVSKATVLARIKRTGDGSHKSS
Description: as §2, with “Magnes” left out

CX-003 CCA PDTX = CX-003 CCA PDTX mouse model (c-Myc negative); assay type: in vivo; conditions: 50 mg/kg oral daily
Description: as §1

[2] = tested on: cMyc, survivin, cyclin D1, cleaved PARP, BIP; assay: Western blot analysis of HCC cell lines; assay type: cell-based
Description: Cells were collected via scraping and lysed in RIPA extraction buffer containing protease inhibitor cocktail and phosphatase inhibitor. Protein concentrations were measured by bicinchoninic acid (BCA) assay and 30 μg were loaded on 4-12% Bis-Tris/MES gels and then transferred to 0.2 μm Immobilon-P membranes. The membranes were hybridized overnight at 4° C. with the following antibodies: SCD1, PARP, survivin, c-Myc, BIP and β-actin. Secondary species-specific horseradish peroxidase-labeled antibodies were from Jackson Immunoresearch. Detection was performed using Supersignal chemiluminescence kit.

[3] = tested on: mouse (M1-1a and M6-1b) cholangiocarcinoma (CCA) cell lines; assay: Proliferation of mouse CCA cell lines; assay type: cell-based; conditions: 0.1-1 μM, 5 day exposure
PAX148 HCC PDTX = PAX148 HCC PDTX mouse model; assay type: in vivo; conditions: daily SSI-4 20-50 mg/kg oral, high LDHA model
Description: as §1

[4] = tested on: SSI-4 responsive HCC cells; assay: Soft agar colony formation assay; assay type: cell-based
Description: Soft agar cultures were prepared by diluting 2× growth medium 1:1 in 1.5% Seaplaque GTG agarose with 1000 cells/plate in 6-well culture dishes. Colonies were stained with Giemsa after 3 weeks and colonies larger than 150 μm were counted using Image J software.

[5] = tested on: human (CX-004T2 and HUCCT1) cholangiocarcinoma (CCA) cell lines; assay: Proliferation of human CCA cell lines; assay type: cell-based; conditions: 0.1-1 μM, 5 day exposure
[6] = tested on: Normal human hepatocytes (HH) cells; assay: Proliferation assay in normal human hepatocytes; assay type: cell-based; conditions: 1 μM
HLE HCC mouse model = assay: HLE HCC mouse model, combination study; assay type: in vivo; conditions: 10 mg/kg SSI4, 30 mg/kg sorafenib or both
Description: as §1

[7] = tested on: SSI4 responsive HCC cells; assay: Lipid assay, unsaturated fatty acids in HCC cells; assay type: cell-based; conditions: 1 μM, 48 hour treatment
Description: Cells were treated for 48 hours with 1 μM SSI4 and lipids from 8 million cells were extracted using the 1957 Folch Lipid Extraction method. Lipids were re-suspended in DMSO and analyzed using Cell Biolab's lipid quantitation assay kit. Borosilicate glass tubes and polypropylene tips and plates were used during the experiments. Samples were read at OD540 nm and were background corrected on a Spectramax M3 spectrophotometer.

[8] = Seven day oral toxicity test in Sprague Dawley rats; assay type: in vivo, rat
Description: Sprague dawley rats (6-8 weeks old M/F) were orally gavaged with SS1-4 at the indicated dose daily, for a duration of seven days. For each dose levels 3 male and 3 females were placed on study. Rats were clinically observed and weighed daily. On day 8 rats were euthanatized and blood was collected by cardiac puncture. Blood chemistry was measured by STAT Veterinary laboratory.

468 kinases = assay: Full matrix kinome scan, binding to 468 kinases; design: species or system human
Description: Kinome Scan was conducted by Lead Hunter Discovery Services

Compound: CNC(=O)c1cc(Oc2ccc(NC(=O)Nc3ccc(Cl)c(C(F)(F)F)c3)c(F)c2)ccn1 [Regorafenib]
- synergy by Chou and Talalay method (HLF cells): exhibited synergy

Compound: CNC(=O)c1ccnc(NC(=O)N2CCC(Oc3ccccc3Cl)CC2)c1 [SSI-4, 2-{[4-(2-Chlorophenoxy)piperidine-1-carbonyl]amino}-N-methylpyridine-4-carboxamide]
- BIP, biomarker of ER stress (IHC) (LIV58 HCC PDTX; LIV58 tumors): upregulated
- Ki-67, survivin and cMyc (IHC) (LIV58 HCC PDTX; LIV58 tumors): attenuated
- antitumor response (tumor volume) (LIV58 HCC PDTX; daily SSI-4 20-50 mg/kg oral, low LDHA model): ~30%
- proliferation response in HCC cells silenced for cMyc with shRNA (HCC cell lines; 1 uM SSI-4, c-Myc 1657 shRNA): blunted response
- IC50 (HCC cell lines; other (non-responsive) HCC cell lines): ≥ 10 µM
- half-life ([1]; male, C57BL/6, mouse, serum, following a single oral dose): 3 to 4 h
- oral bioavailability ([1]; single dose, mice): excellent oral bioavailability
- IC50 (SCD1): 0.0019 µM
- antitumor response (tumor volume) (CX-003 CCA PDTX): no response
- ER stress (BIP) [2]: inducing
- Wnt regulated genes (cMyc, survivin and cyclin D1) protein [2]: down-regulated
- apoptosis (cleaved PARP) [2]: inducing apoptosis
- cell growth [3]: growth inhibition
- antitumor response (tumor volume) (PAX148 HCC PDTX): highly sensitive
- colony formation in soft agar [4]: decreased colony formation
- cell growth [5]: growth inhibition
- growth inhibition [6]: not growth inhibited
- in vivo tumor response over time (HLE HCC mouse model): escape over time on therapy
- levels of unsaturated fatty acids [7]: decreased
- blood chemistries ([8]; day 8): in normal range
- toxicity ([8]; male or female rats, daily oral for seven days): Little to no toxicity
- weight loss ([8]; males, 300 mg/kg): 6%
- kinases found to bind (of 468) (468 kinases; SSI-4 at 10 nM): none
- kinases found to bind (of 468) (468 kinases; SSI-4 at 100 nM, kinase bound is CDKL2): 1

Compound: CNC(=O)c1cc(Oc2ccc(NC(=O)Nc3ccc(Cl)c(C(F)(F)F)c3)cc2)ccn1 [sorafenib, reference compound]
- IC50 (HCC cell lines; all cell lines tested): 1.7 to 6.4 µM
- in vivo tumor response over time (HLE HCC mouse model): escape over time on therapy
